{"source": "patent EP0385952A2", "about": "“Use of a naphthalenmethanamino derivative as antiinflammatory agent and pharmaceutical compositions containing it” (SANDOZ AG, priority 1989, dated 1990)", "key": {"[1]": {"test_system": "guinea pigs", "assay": "UV-erythema model (2.2.)", "assay_type": "in vivo", "conditions": "therapeutic, test concentration 5.0 %, topical, erythema score", "description": "Female guinea pigs weighing 250-300 g are used. On the day before experiment they are shorn on both flanks followed by a final dry shaving without skin irritation two hours before UV exposure. Two circular areas (10 mm diameter) on each flank are exposed 10 seconds to ultraviolet rays from […] at an intensity of 16 mW/cm² (UVA) and 500 mW/cm² (UVB). Drugs are administered topically immediately after exposure to UV light in a volume of 50 µl of 25 % ethanol and 75 %polyethylenglycol-400 to the irradiated skin areas on the right flank. Two areas on the left flank serve as vehicle control. Erythema is assessed visually 3.5 and 5.5 hours after irradiation and results expressed in scores. Changes in erythema intensity after drug administration are expressed as percentages of the scored erythema intensity in vehicle-treated areas."}, "[2]": {"test_system": "OF₁-mouse resident peritoneal macrophages", "assay": "Zymosan-induced release of TXB₂, PGE₂ and LTC₄", "assay_type": "cell-based", "conditions": "Peritoneal macrophage, 2 hours", "description": "The test compound is added in various concentrations to monolayers of OF₁-mouse resident peritoneal macrophages isolated as described in J. Schnyder and M. Baggiolini, J. Exp. Med. 148 (1978) 435-450. 0.5 ml of the suspension containing 1.2 x 10⁶ cells/ml DMEM (Dulbecco's modified Eagles medium, non-essential amino acids, 2 mM L-glutamine, 100 U/ml penicillin/streptomycin) containing 2 % heat-inactivated fetal calf serum and 20 U heparin/ml is added to each well of 24-well plates (diameter 1.6 cm) and allowed to adhere at 37°C for 2 hours in 5 % CO₂/air. The monolayers are then washed with PBS and 0.5 ml DMEM containing 1 % heat-inactivated fetal calf serum added. Various concentrations of the test substance in the same medium (containing a maximum final concentration of 1 % DMSO) are added, the final volume being 0.98 ml, and after 10 minutes at 37°C, the cells are stimulated by addition of 20 µl of a 1-20 v/v dilution of zymosan particles (Sigma Chemie, Deisenhofen, FRG) in 50 mg/ml PBS. After 2 hours at 37° C, the media are removed, centrifuged at 1300 g for 5 minutes and decanted. The cells are lysed with 1ml 0.01 % digitonin. The supernatants are then analysed by radioimmunoassay procedures for thromboxane B₂, prostaglandin E₂ and leukotriene C₄. Lactate dehydrogenase activities in the medium and cell lysates are also measured as an indication of cell toxicity."}, "[3]": {"test_system": "12 + 15-lipoxygenase", "assay": "12 + 15-lipoxygenase inhibition (neutrophil functions)", "assay_type": "cell-based", "conditions": "read-out: IC₅₀ for 12 + 15-lipoxygenase"}, "[4]": {"test_system": "NMRI mice", "assay": "Arachidonic acid-induced pinnal swelling in mice (irritant contact dermatitis, 2.1.1.)", "assay_type": "in vivo", "conditions": "prophylactic, epicutaneous, pinnal weight", "description": "Skin irritation with arachidonic acid or cantharidin is often used to experimentally induce inflammation in order to evaluate the anti-inflammatory activity of a compound [see e.g. Inflammation 8 (1984) 134-135; 10 (1986) 205-214]. NMRI mice (8 animals per group) receive 10 µl of a 10 % solution of arachidonic acid [J.M. Young et al., J. Invest. Derm. 82 (1986) 367-371] in acetone or, respectively, 0.08 % cantharidin [K.E. Swingle et al., Arch. Int. Pharmacodyn. Ther. 254 (1981) 168-176] in acetone applied to the medial and lateral surface of the right external ear. Treatment is performed either prophylactically 30 minutes before irritation (arachidonic acid) or, respectively, either simultaneously with the application of irritant solution or therapeutically 20 minutes after irritation (cantharidin), by a single epicutaneous application of the test compound dissolved in a mixture of N,N-dimethylacetamide, acetone and alcohol (2:2:4). The evaluation of the test group is effected by comparison with a control group of animals having received on the right ear lobe only the carrier substance or the irritant solution. The animals are killed 1.5 hours (arachidonic acid) or, respectively, 17 hours (cantharidin) after application of the irritant and efficacy in assessed by determination of the differences in auricular weight. Differences in weights (D) of right (involved) and left (uninvolved) pinnae of animals treated with test compound and arachidonic acid or cantharidin (T-group) are compared with differences in mice treated with arachidonic acid only or cantharidin only (C-group). Efficacy (%) is calculated according to the equation: [formula]"}, "[5]": {"test_system": "platelets", "assay": "Thromboxane B₂ production in platelets", "assay_type": "cell-based", "conditions": "Platelet, read-out: IC₅₀ for thromboxane B₂ production"}, "[6]": {"test_system": "Peritoneal exudate cells of NMRI mice (macrophage population)", "assay": "TPA-induced prostaglandin E₂ (PGE₂) release", "assay_type": "cell-based", "conditions": "Mus musculus, TPA 20 ng/ml, 1h, read-out: IC₅₀ for the inhibition of TPA-induced PGE₂ release", "description": "Peritoneal exudate cells of NMRI mice (strain NMRI) pretreated with 1.5 ml thioglycollate ip 3 days previously are harvested by peritoneal lavage, washed in phosphate-buffered saline (PBS without Ca⁺⁺ and Mg⁺⁺) and resuspended in DMEM medium supplemented with 10 % fetal calf serum (FCS). 1x10⁶ cells in 1 ml are placed into wells of Costar-24 tissue culture plates and cells are allowed to adhere for 24 hours at 37°C and 5 % CO₂. Cells are then washed twice with PBS and the remaining, more than 95 % pure macrophage population is stimulated with 12-O-tetradecanoylphorbol-13-acetate (TPA) (20 ng/ml, 1h) in DMEM medium without FCS. Conditioned media are centrifuged and PGE₂ levels are determined using a ¹²⁵I radioimmunoassay. Samples are assayed in duplicate. Inhibition of PGE₂ release by test compounds is calculated as percent inhibition compared to the controls."}, "[7]": {"test_system": "Macrophages isolated from the bone marrow of mice", "assay": "Zymosan-stimulated release of hydrogen peroxide", "assay_type": "cell-based", "conditions": "Mus musculus, Macrophage, 2 hours at 37° C, read-out: IC₅₀, zymosan-stimulated release of hydrogen peroxide", "description": "The production of hydrogen peroxide is used as a measure for the respiratory burst of phagocytic cells. Macrophages 10 to 14 days old, isolated from the bone marrow of mice are incubated for 10 to 30 minutes in the presence of the test compound. Zymosan (0.5 ml) is then added as phagocytic stimulant and the mixture is incubated for a further 2 hours at 37° C in the presence of homovallinic acid (0.5 ml, 400 µM) and horse radish peroxidase (4 U/ml). The reaction is stopped by the addition of 0.25 ml 0.1 M glycine-NaOH buffer, pH 12, containing 25 mM EDTA, the samples centrifuged at 2200 g for 10 minutes, and the homovallinic acid oxidation product, as a measure of the amount of H₂O₂ produced, measured fluorimetrically."}, "[8]": {"test_system": "neutrophils", "assay": "Neutrophil exocytosis assay (FMLP-stimulated enzyme release)", "assay_type": "cell-based"}}, "note": "Like-named read-outs stand apart in the source and are kept apart here. Marks after values point to notes of the source that are not given here."}
{"smiles": "CN(C/C=C/c1ccc(O)cc1)Cc1cccc2ccccc12", "note": "[compound of the invention, (E)-N-methyl-N-[3-(4-hydroxyphenyl)-2-propenyl]-1-naphthalene-methanamine]", "values": [{"measurement": "Efficacy (%)", "setting": "[1]", "value": 27, "unit": "%"}, {"measurement": "IC50", "setting": "[2]; read-out: IC₅₀ for LTC₄", "value": 8, "unit": "µM"}, {"measurement": "IC50", "setting": "[2]; read-out: IC₅₀ for PGE₂", "value": 1.5, "unit": "µM"}, {"measurement": "IC50", "setting": "[2]; read-out: IC₅₀ for TXB₂", "value": 6, "unit": "µM"}, {"measurement": "IC50", "setting": "[3]", "value": 100, "unit": "µM"}, {"measurement": "Efficacy (%)", "setting": "[4]; test concentration 1.2 %", "value": "33** %"}, {"measurement": "Efficacy (%)", "setting": "[4]; test concentration 3.6 %", "value": "48*** %"}, {"measurement": "IC50", "setting": "[5]", "value": 100, "unit": "µM"}, {"measurement": "IC50", "setting": "[6]", "value": "1 to 3", "unit": "µM"}, {"measurement": "IC50", "setting": "[7]", "value": 2.1, "unit": "µM"}, {"measurement": "IC50", "setting": "[8]; read-out: IC₅₀ for FMLP-stimulated release of azurophil granule enzymes", "value": "> 100", "unit": "µM"}, {"measurement": "IC50", "setting": "[8]; read-out: IC₅₀ for FMLP-stimulated release of lysosomal enzymes", "value": "> 100", "unit": "µM"}, {"measurement": "IC50", "setting": "[8]; read-out: IC₅₀ for FMLP-stimulated release of specific granule enzymes", "value": "> 100", "unit": "µM"}]}
